Consider 3 molecules from patent US20040180958A1, “Method of treatment” (priority 2002, published 2004).

What is called melting point is the temperature of the solid-liquid transition.

Data set [1] deals with micturition reflex of anaesthetised rats. The experiment in a line: Continuous cystometry: effects of an alpha-2-delta ligand on the micturition reflex of anaesthetised rats. The format is in vivo, rat. On the procedure:
Investigation into the Effects of an Alpha-2-delta Ligand on the Micturition Reflex of Anaesthetised Rats
Four caesarean derived (CD) rats weighing approximately 225 g were anaesthetised using urethane and continuous cystometry performed.
The animals were anaesthetised using urethane (1.2 g/kg, i.p.). Depth of anaesthesia was assessed by the stability of blood pressure and heart rate, and by an absence of hind limb withdrawal in response to paw pinch. Supplementary doses of urethane ([…], i.v.) were given where necessary.
The trachea was intubated to maintain a patent airway, an external jugular vein was cannulated for drug administration, and a common carotid artery was cannulated with a heparinised cannula (20 units/ml heparin in 0.9% w/v saline) for the measurement of arterial blood pressure.
Blood pressure was measured using a pressure transducer and the heart rate (HR) derived electronically on-line from the blood pressure using PoneMah (Linton Pty Ltd UK). Body temperature was monitored with a rectal temperature probe and maintained between 36-38° C. using a homeothermic blanket system (Harvard, UK). Animals were allowed to breathe air spontaneously throughout the duration of the experiment.
The urinary bladder was exposed by a midline abdominal incision. A cannula (c. 0.52 mm internal and 1.2 mm external diameter) was inserted into the bladder dome as a means of infusing the bladder while simultaneously recording intravesical bladder pressure. The bladder was infused with physiological saline (0.9%) at the rate of 0.046 ml/min, to simulate the maximal hourly diuresis rate of the rat (Klevmark B [1974]—Motility of the urinary bladder in cats during filling at physiological rates. I. Intravesical pressure patterns studied by a new method of cystometry. Acta Physiol Scand 90(3): 565-77).
Following the surgical procedure the animals were allowed to stabilise for c. 30 min. After the stabilisation period, cystometry was performed and bladder function (interval between micturition) in response to Gabapentin-HCl (0.3, 1, 3 and 10 mg/kg administered intravenously) was monitored.
Differences between treatment groups were examined using ANOVA.
Gabapentin-HCl (Tocris, UK) was dissolved in saline.

For data set [2], the system named is male spontaneously hypertensive rat (SHR). As to the kind of experiment: Micturition frequency and bladder pressure by telemetry in the male spontaneously hypertensive rat (SHR). The data set is classed as in vivo. The note with it: 60 mg/kg s/c. The protocol: Effect of an Alpha-2-delta Ligand on Micturition Frequency and Bladder Pressure in the Male Spontaneously Hypertensive Rat (SHR)
Eight (8) male spontaneously hypertensive rats were prepared surgically with Data Sciences International (DSI) telemetry transponders (TL11M2-C50-PXT). Bladder pressure was continuously monitored with the aid of a pressure catheter placed via the dome of the bladder.
Bladder parameters (bladder pressure, voiding pressure and the number of voids) were recorded in response to placebo or treatment with 60 mg/kg Gabapentin administered subcutaneously (s/c).

With `CCC[C@@H](C)C[C@H](N)CC(=O)O.Cl`, the melting point was 142.5 to 142.7 °C.

The molecule `CCCC[C@@H](C)C[C@H](N)CC(=O)O.Cl` showed a melting point of 142.5 to 143.3 °C.

Consider `NCC1(CC(=O)O)CCCCC1` [gabapentin, 1-(aminomethyl)-cyclohexylacetic acid], for which the micturition interval was 9.89 ± 2.72 min in data set [1] (10 mg/kg intravenously, control 3.1±0.29 min, P<0.05) and “significantly decreased” in data set [2] (P<0.05, FIG. 2). Also, the “adverse effects on micturition efficiency, urine retention or bladder contraction upon voiding” value in data set [1] (10 mg/kg, anaesthetised rats) is given as “did not have any adverse effects”. In addition, in data set [1] (anaesthetised rats, intravenous, as a consequence of the longer micturition interval), the bladder capacity improved was found to be 200%. Besides, in data set [1] (urethane-anaesthetised CD rats, 0.3, 1, 3 and 10 mg/kg intravenously, relative to control periods), the “interval between voiding events” value is reported as “significantly extended the interval between voiding events in a dose dependent manner”. The bladder capacity entry in data set [2] (FIG. 2) was “increased bladder capacity”. Also, the “average bladder pressure during the filling stages of the micturition cycle” value in data set [2] (P<0.05 relative to control periods, FIG. 3) is recorded as “significantly decreased”.
